Test results reported in article PMC4840272 (Neoplasia (New York, N.Y.), 2016).
Where “and” joins values, the source holds several entries; their conditions need not be identical. Identical values can stand only once. Values belong to the compound of their own block, whether it stands above or below them.

What was measured:
11 NSCLC cell lines = test: cytotoxicity against batch of 11 NSCLC cell lines; type: cell-based; settings: Homo sapiens, read-out: IC50 values against NSCLC cells (range)
MES-SA/dx5 = test: cytotoxicity in multiple drug-resistant and cisplatin-resistant cells; type: cell-based; settings: for IC50: Homo sapiens, MES-SA/Dx5; for resistance factor: MES-SA/dx5 vs MES-SA
H1299 cells = test: cells; type: cell-based, human; settings: Homo sapiens, NCI-H1299, 72 h
topo II = topo II activity assay with nuclear extracts of treated H460 cells; type: cell-based, human; settings: H460 cells treated 72 hours, nuclear extract, plasmid relaxation
pEGFP-N1 plasmid DNA = test: alkaline gel shift assay of DNA cross-linking; type: biochemical; settings: 0.125 to 2 μM, 2 hours, 37°C
CCRF/VBL = test: cytotoxicity in multiple drug-resistant and cisplatin-resistant cells; type: cell-based
PC9 xenograft = PC9 xenograft in nude mice; type: in vivo; settings: i.v., BO-1978 40 mg/kg, gefitinib 10 mg/kg, daily for 5 consecutive days
caspases 3 and 7 = test: Western blot of apoptotic executor proteins; type: cell-based, human; settings: H460 cells
PC9 cells = test: cells; type: cell-based, human; settings: Homo sapiens, PC-9, 72 h
[1] = stability in culture medium; type: physicochemical
KB = test: cytotoxicity in multiple drug-resistant and cisplatin-resistant cells; type: cell-based; settings: Homo sapiens
CL97 cells = test: cells; type: cell-based, human; settings: Homo sapiens, CL97, 72 h
CL1-5 cells = test: alamarBlue in vitro cytotoxicity assay; type: cell-based, human; settings: Homo sapiens, CL1-5, 72 h
H460 cells [2] = test: cells; type: cell-based, human; settings: Homo sapiens, NCI-H460, 72 h
NTUB1 = test: cytotoxicity in multiple drug-resistant and cisplatin-resistant cells; type: cell-based
CL141T cells = test: cells; type: cell-based, human; settings: Homo sapiens, 72 h
KB/vin10 = test: cytotoxicity in multiple drug-resistant and cisplatin-resistant cells; type: cell-based
[3] = acute toxicity LD50 in ICR mice; settings: male, mouse, in vivo
H1975 cells = test: cells; type: cell-based, human; settings: Homo sapiens, NCI-H1975, 72 h
H460 cells [4] = test: modified comet assay of DNA ICLs; type: cell-based, human; settings: 1, 5, and 10 μM, 2 hours
stability in rat plasma = type: in vitro ADME
CL100 cells = test: cells; type: cell-based, human; settings: Homo sapiens, 72 h
H1975 xenograft = H1975 xenograft in nude mice; type: in vivo; settings: i.v., BO-1978 40 mg/kg, gefitinib 10 mg/kg, daily for 5 consecutive days
H1650 xenograft = H1650 xenograft in nude mice; type: in vivo; settings: i.v., BO-1978 40 mg/kg, gefitinib 10 mg/kg, daily for 5 consecutive days
PC9/gef B4 xenograft = PC9/gef B4 xenograft in nude mice; type: in vivo; settings: i.v., BO-1978 40 mg/kg, gefitinib 10 mg/kg, daily for 5 consecutive days
H1650-Luc cells = test: orthotopic lung tumor model, IVIS; type: in vivo, nude mice; settings: BO-1978 40 mg/kg, gefitinib 10 mg/kg, daily for 5 consecutive days
[5] = tissue distribution in SD rats; type: in vivo; settings: 30 minutes after administration, 10 mg/kg, n = 6
γH2AX, DNA-PK, and Rad51 = test: Western blot of DNA damage response; type: cell-based, human; settings: H460 cells, 1 to 4 μM, 24 hours
H460 cells [6] = test: cell cycle analysis by flow cytometry; type: cell-based, human; settings: 1 to 4 μM, 24 to 72 hours
H460 xenograft = H460 xenograft in nude mice; type: in vivo
A549 cells = test: cells; type: cell-based, human; settings: Homo sapiens, A549, 72 h
PC9/gef B4 cells = test: cells; type: cell-based, human; settings: for IC50: Homo sapiens, 72 h; for resistance factor of PC9/gef B4 to PC9 cells: IC50 ratio, number in brackets
topo I = topo I (Homo sapiens, UniProt P11387); test: topo I activity assay with nuclear extracts of treated H460 cells; type: cell-based; settings: H460 cells treated 72 hours, nuclear extract, plasmid relaxation
[7] = complete blood count and blood chemistry test in ICR mice; type: in vivo; settings: 40 mg/kg i.v.
MES-SA = test: cytotoxicity in multiple drug-resistant and cisplatin-resistant cells; type: cell-based; settings: Homo sapiens
NTUB1/P = test: as above; type: cell-based
H1650 cells = test: cells; type: cell-based, human; settings: Homo sapiens, NCI-H1650, 72 h
CCRF-CEM = test: cytotoxicity in multiple drug-resistant and cisplatin-resistant cells; type: cell-based; settings: Homo sapiens
[8] = histopathological examination of major organs in ICR mice; type: in vivo; settings: 40 mg/kg i.v., days 2 and 14, histopathology and blood tests
[9] = whole-blood pharmacokinetics in SD rats; type: in vivo
[10] = male, SD, rat, whole blood, iv, 10 mg/kg

topo I, sequence (P11387 whole entry): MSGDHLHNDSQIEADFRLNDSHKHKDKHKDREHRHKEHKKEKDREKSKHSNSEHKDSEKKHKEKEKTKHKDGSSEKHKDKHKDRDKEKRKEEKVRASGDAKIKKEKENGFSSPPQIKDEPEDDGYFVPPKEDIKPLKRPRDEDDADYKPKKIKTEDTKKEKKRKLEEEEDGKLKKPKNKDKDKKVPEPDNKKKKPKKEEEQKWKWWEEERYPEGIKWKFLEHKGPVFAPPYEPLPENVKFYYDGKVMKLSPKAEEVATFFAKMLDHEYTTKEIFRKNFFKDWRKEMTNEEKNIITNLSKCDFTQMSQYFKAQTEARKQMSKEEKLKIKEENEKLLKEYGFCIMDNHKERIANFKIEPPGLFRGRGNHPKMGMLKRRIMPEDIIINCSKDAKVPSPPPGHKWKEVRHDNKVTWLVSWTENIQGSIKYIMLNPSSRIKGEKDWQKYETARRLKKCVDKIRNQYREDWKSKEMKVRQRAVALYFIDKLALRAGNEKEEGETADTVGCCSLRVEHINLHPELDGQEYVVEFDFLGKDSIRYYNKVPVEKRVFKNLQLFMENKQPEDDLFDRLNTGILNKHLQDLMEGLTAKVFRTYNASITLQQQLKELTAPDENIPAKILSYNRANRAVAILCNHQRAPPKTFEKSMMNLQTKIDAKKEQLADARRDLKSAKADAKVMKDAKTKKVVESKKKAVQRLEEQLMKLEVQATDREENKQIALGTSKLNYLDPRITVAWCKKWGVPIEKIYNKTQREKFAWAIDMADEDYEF

Compound: CCc1c(CO)c(CO)c2n1Cc1c(c3ccccc3n1C)C2 [BO-1978, [3-ethyl-6-methyl-6,11-dihydro-5H-indolizino[6,7-b]indole-1,2-diyl]dimethanol]
IC50 (11 NSCLC cell lines): 1.06 to 3.5 µM
IC50 (MES-SA/dx5): 0.47 ± 0.12 µM
resistance factor (MES-SA/dx5): 0.61 x
IC50 (H1299 cells): 3.02 ± 0.65 µM
concentration at which topo II activity was significantly inhibited (topo II): greater than 0.5 μM
formation of DNA ICLs in plasmid DNA (pEGFP-N1 plasmid DNA): formed DNA ICLs
IC50 (CCRF/VBL): 0.41 ± 0.03 µM
suppression of xenograft tumor growth (PC9 xenograft): 55%
cleavage of caspases 3 and 7 (caspases 3 and 7): dose- and time-dependently induced cleavage of caspases 3 and 7
IC50 (PC9 cells): 1.41 ± 0.37 µM
half-life [1]: 36.8 ± 2.19 h
IC50 (KB): 1.96 ± 0.39 µM
IC50 (CL97 cells): 1.25 ± 0.18 µM
IC50 (CL1-5 cells): 1.47 ± 0.53 µM
IC50 (H460 cells [2]): 1.06 ± 0.11 µM
IC50 (NTUB1): 1.14 ± 0.32 µM
IC50 (CL141T cells): 1.32 ± 0.47 µM
IC50 (KB/vin10; Homo sapiens, KB-VIN10): 1.56 ± 0.51 µM
resistance factor (KB/vin10; KB/vin10 vs KB): 0.79 x
LD50 [3]: 93.7 mg/kg
IC50 (H1975 cells): 2.34 ± 0.18 µM
tail moment in X-ray irradiated H460 cells (DNA ICLs) (H460 cells [4]): dose-dependently induced shortened tail moments
half-life (stability in rat plasma): 89.4 ± 5.62 h
IC50 (CL100 cells): 1.51 ± 0.3 µM
suppression of xenograft tumor growth (H1975 xenograft): 26%
suppression of xenograft tumor growth (H1650 xenograft): 30%
suppression of xenograft tumor growth (PC9/gef B4 xenograft): 73%
orthotopic growth of H1650-Luc cells (H1650-Luc cells): effectively suppressed
concentration in Blood [5]: 1.59 ± 0.48 μg/ml or μg/g
concentration in Brain [5]: 3.97 ± 0.96 μg/ml or μg/g
concentration in Heart [5]: 1.79 ± 0.72 μg/ml or μg/g
concentration in Kidney [5]: 2.19 ± 0.12 μg/ml or μg/g
concentration in Liver [5]: 10.71 ± 1.96 μg/ml or μg/g
concentration in Lung [5]: 3.13 ± 1.44 μg/ml or μg/g
concentration in Spleen [5]: 0.48 ± 0.08 μg/ml or μg/g
expression of γH2AX, DNA-PK, and Rad51 (γH2AX, DNA-PK, and Rad51): dose-dependently increased the expression levels
cell cycle interference (H460 cells [6]): S phase delay at 24 hours and then G2 arrest at 72 hours
body weight loss (H460 xenograft; H460 xenograft mice, BO-1978 40 mg/kg QDx5, cisplatin 6 mg/kg every 4 days x3): negligible
H460 xenograft tumor size suppressed/reduced to (H460 xenograft; i.v., BO-1978 40 mg/kg QDx5, cisplatin 6 mg/kg every 4 days x3): approximately 65%
maximal tolerant dose (H460 xenograft; nude mice, i.v., given for 5 consecutive days (QDx5)): 40 mg/kg
IC50 (A549 cells): 3.15 ± 1.2 µM
IC50 (PC9/gef B4 cells): 1.58 ± 0.33 µM
resistance factor of PC9/gef B4 to PC9 cells (PC9/gef B4 cells): 1.12
concentration at which topo I activity was significantly inhibited (topo I): greater than 0.5 μM
ALP ([7]; 14 Days): 233.50 ± 36.74 U/l
ALT ([7]; 14 Days): 44.87 ± 19.72 U/l
AST ([7]; 14 Days): 86.14 ± 25.25 U/l
BASO ([7]; 14 Days): 0.09 ± 0.03 10^9/l
BUN ([7]; 14 Days): 23.95 ± 1.71 mg/dL
CRE ([7]; 14 Days): 0.17 ± 0.05 mg/dL
EOS ([7]; 14 Days): 0.12 ± 0.13 10^9/l
HCT ([7]; 14 Days): 44.02 ± 1.18%
HGB ([7]; 14 Days): 12.78 ± 0.42 g/dL
LYM ([7]; 14 Days): 2.86 ± 0.88 10^9/l
MCH ([7]; 14 Days): 16.38 ± 0.52 pg
MCHC ([7]; 14 Days): 29.05 ± 0.46 g/dL
MCV ([7]; 14 Days): 56.40 ± 1.69 fL
MONO ([7]; 14 Days): 0.11 ± 0.09 10^9/l
NEU ([7]; 14 Days): 0.82 ± 0.47 10^9/l
PLT ([7]; 14 Days): 958.00 ± 178.31 10^9/l
RBC ([7]; 14 Days): 7.81 ± 0.33 10^12/l
WBC ([7]; 14 Days): 4.00 ± 0.97 10^9/l
ALP ([7]; 48 Hours): 297.50 ± 72.11 U/l
ALT ([7]; 48 Hours): 156.25 ± 236.88 U/l
AST ([7]; 48 Hours): 220.27 ± 153.45 U/l
BASO ([7]; 48 Hours): 0.06 ± 0.03 10^9/l
BUN ([7]; 48 Hours): 19.48 ± 2.03 mg/dL
CRE ([7]; 48 Hours): 0.18 ± 0.15 mg/dL
EOS ([7]; 48 Hours): 0.05 ± 0.04 10^9/l
HCT ([7]; 48 Hours): 41.13 ± 1.95%
HGB ([7]; 48 Hours): 11.96 ± 0.53 g/dL
LYM ([7]; 48 Hours): 1.83 ± 1.17 10^9/l
MCH ([7]; 48 Hours): 16.75 ± 0.45 pg
MCHC ([7]; 48 Hours): 29.07 ± 0.40 g/dL
MCV ([7]; 48 Hours): 57.61 ± 1.27 fL
MONO ([7]; 48 Hours): 0.05 ± 0.04 10^9/l
NEU ([7]; 48 Hours): 0.45 ± 0.21 10^9/l
PLT ([7]; 48 Hours): 786.10 ± 90.60 10^9/l
RBC ([7]; 48 Hours): 7.14 ± 0.38 10^12/l
WBC ([7]; 48 Hours): 2.43 ± 1.19 10^9/l
IC50 (MES-SA): 0.77 ± 0.08 µM
IC50 (NTUB1/P; NTUB1): 1.92 ± 0.39 µM
resistance factor (NTUB1/P; NTUB1/P vs NTUB1): 1.68 x
IC50 (H1650 cells): 3.5 ± 0.1 µM
IC50 (CCRF-CEM): 0.46 ± 0.12 µM
toxic effects in the major organs [8]: did not cause apparent toxic effects in the major organs except for slight and recoverable liver damage
systemic clearance as share of cardiac output of rats ([9]; cardiac output approximately 296 ml/min per kg): approximately 19%
systemic clearance ([9]; male SD rats, single i.v. 10 mg/kg): 56.24 ± 14.90 ml/min per kg
AUC(0-t) [9, 10]: 3140 ng·h/mL
C0 [9, 10]: 8630 ng/mL and 27.8 µM
MRT [9, 10]: 0.456 h
half-life [9, 10]: 0.392 ± 0.118 h

Compound: COc1cccc2c1C(=O)c1c(O)c3c(c(O)c1C2=O)C[C@@](O)(C(=O)CO)C[C@@H]3O[C@H]1C[C@H](N)[C@H](O)[C@H](C)O1 [Doxorubicin]
IC50 (MES-SA/dx5): 2.3 ± 0.98 µM
resistance factor (MES-SA/dx5): 60.52 x
IC50 (MES-SA): 0.038 ± 0.003 µM

IC50 (H1299 cells): 24.5 ± 1.85 µM
IC50 (PC9 cells): 11.2 ± 1.97 µM
IC50 (H460 cells [2]): 4.18 ± 1.29 µM
IC50 (H1975 cells): 36.8 ± 14.4 µM
IC50 (A549 cells): 9.29 ± 3.31 µM
IC50 (H1650 cells): 17.1 ± 4.2 µM
Compound: CCc1c2c(nc3ccc(OC(=O)N4CCC(N5CCCCC5)CC4)cc13)-c1cc3c(c(=O)n1C2)COC(=O)[C@]3(O)CC [Irinotecan]

IC50 (H1299 cells): 15.6 ± 7.45 µM
IC50 (PC9 cells): 19.3 ± 6.28 µM
IC50 (CL97 cells): 24.4 ± 17.4 µM
IC50 (H460 cells [2]): 7.31 ± 2.56 µM
IC50 (CL141T cells): 23.3 ± 3.34 µM
IC50 (H1975 cells): 14.1 ± 2.9 µM
IC50 (CL100 cells): 4.3 ± 3.87 µM
IC50 (A549 cells): 22.4 ± 14.4 µM
IC50 (PC9/gef B4 cells): 36.7 ± 20.5 µM
IC50 (H1650 cells): 32.5 ± 17.6 µM
Compound: COc1cc([C@@H]2c3cc4c(cc3[C@@H](O[C@@H]3O[C@@H]5CO[C@@H](C)O[C@H]5[C@H](O)[C@H]3O)[C@H]3COC(=O)[C@H]23)OCO4)cc(OC)c1O [Etoposide]
IC50 (CL1-5 cells): 12.6 ± 3.93 µM
resistance factor of PC9/gef B4 to PC9 cells (PC9/gef B4 cells): 1.90
